Here are results for one sequence from article PMC4585737, “Lipoproteins/peptides are sepsis-inducing toxins from bacteria that can be neutralized by synthetic anti-endotoxin peptides” (Scientific Reports, 2015).

One test concerns human MNCs. The conditions noted are these: even at [LPS]:[Aspidasept] weight ratios as low as 1:1; cited from earlier work. From the text:
In this section, we first present in vitro data on the production of pro-inflammatory cytokines by human cells in response to LP or LTA from different origin and its neutralization by SALP. Then, we used a mouse model of acute toxemia to characterize the in vivo expression of those cytokines and to study if SALP can protect animals against lethal LP-induced sepsis.

The subject of another test is human macrophages. As to the kind of experiment: TNFα production in human macrophages stimulated by LPS or LP, and its inhibition by SALP. The format is cell-based. On the procedure:
In some stimulation experiments, also macrophages were used. Briefly, MNC were isolated from peripheral blood from healthy donors by the Hypaque-Ficoll gradient method. To differentiate the monocytes to macrophages cells were cultivated in Teflon bags in the presence of 2 ng/ml M-CSF in RPMI 1640 medium (endotoxin <0.01 EU/ml; Biochrom, Berlin, Germany) containing 100 U/ml penicillin, 100 μg/ml streptomycin, 2 mM L-glutamine and 4% heat-inactivated human serum type AB at 37 °C and 6% CO2. On day 6, cells were washed with PBS, detached by Trypsin-EDTA treatment and seeded at 1 × 10^6 cells/ml in complete medium in 96-well tissue culture dishes (Nunc, Wiesbaden, Germany). After stimulation of cells with various LP for 4 h, cell-free supernatants of duplicate samples were collected, pooled and stored at −20 °C until determination of cytokine content. Data shown are representative of at least three independent experiments.
LP preparations were pre-warmed for 30 min at 37 °C, and added to the cultures at 20 μl per well. In inhibition experiments, different SALP were added directly after LPS/LP/LTA administration. […]

A further test concerns FSL-1 aggregates. Kind of test: FRET intercalation of peptide into FSL-1 aggregates. The format is binding. From the text: The ability of selected peptides to intercalate into LP aggregates was investigated exemplarily for FSL-1 and for LP SitC by FRET as described earlier. Briefly, the LP samples were doubly labelled with the fluorescent phospholipid dyes N-(7-nitrobenz-2-oxa-1,3-diazol-4-yl)-phosphatidyl ethanolamine (NBD-PE) and N-(lissamine rhodamine B sulfonyl)-phosphatidylethanolamine (Rh-PE) (Molecular Probes, Life Technologies). Intercalation of unlabeled molecules into the doubly labeled liposomes leads to probe dilution and to a lower FRET efficiency: Therefore, the emission intensity of the donor ID increases and that of the acceptor IA decreases (for the sake of clarity, only the quotient of the donor and acceptor emission intensity will be shown here).
In all the experiments, the peptides (100 μl of a 100 μM Hepes solution) were added to doubly labelled LP (900 μl of a 10 μM solution) at 50 s after equilibration. NBD-PE was excited at 470 nm and the donor and acceptor fluorescence intensities were monitored at 531 and 593 nm, respectively, and the fluorescence signal ID/IA was recorded for further 250 s. The measurement was repeated twice.

The test system of another test is FSL-1. As to the kind of experiment: Isothermal titration calorimetry of peptide into FSL-1. The format is binding. The note with it: LP 0.05 mM, peptide 1 mM titrated in 3 μl portions every 5 min, 37 °C. On the procedure:
Microcalorimetric measurements of peptide binding to selected LP, i.e., Pam3CSK4 and FSL-1 were performed on a MCS isothermal titration calorimeter (Microcal, Freiburg, Germany) at 37 °C, as previously described. The LP containing solutions (0.05 mM, prepared as described above) were dispensed into the microcalorimetric cell (volume 1.5 ml), and the peptide solutions (1 mM) were loaded into the syringe compartment (volume 0.1 ml). After temperature equilibration, the peptide was titrated in 3 μl aliquots every 5 min into the LP-containing cell under constant stirring and the heat of interaction after each injection measured by the MCS instrument was plotted versus time.
For orientation: In ITC the heat of successive injections is recorded.

“Also recorded” adds a separate entry of the source.

Turning to “GCKKYRRFRWKFKGKFWFWG [Aspidasept®, synthetic anti-LPS peptide (SALP), 20′mer, anti-septic therapeutic drug candidate]”, in the test on human MNCs, the “inhibition of LPS-induced cytokine expression in human MNCs” value is given as “efficiently inhibits”. For the same sequence, the “inhibition of TNFα production” value in the test on human macrophages (stimulus LP SitC 1000 and 100 ng/ml, 10:1 excess of peptide, three independent measurements) was “strong inhibition”. Further, the “inhibition of LP-dependent TNFα secretion” value in the test with human macrophages (stimulus LP SitC, all tested concentrations, [LP]:[Pep] 1:10 and 1:100 weight%) is given as “almost totally abrogated”. The “FRET: intercalation on increase in peptide concentration” value in the test with FSL-1 aggregates (FSL-1:Pep19-2.5 1:1 M/M vs 1:0.1 M/M) is listed as “did not lead to a further increase in intercalation”. The “FRET: incorporation into the LP aggregate” value in the test on FSL-1 aggregates ([LP]:[Aspidasept] 1:0.1 molar, peptide added after 50 s, ID/IA signal) is listed as “instantaneous incorporation”. In the test with FSL-1, the “ITC: FSL-1:peptide interaction” value is listed as “exothermic reaction with saturation kinetics; also recorded: considerable reaction with saturation characteristics”.
